Results reported in patent US6310043A (priority 1999, dated 2001).

Assays:
Format in all cases: binding, E. coli
[1] = target: SLT-1 (Verotoxin I) (Bacteriophage H30, UniProt P69178); assay: biochemical; details: for IC50: read-out: IC50
[2] = target: SLT-1 (VT-1) (Bacteriophage H30, UniProt P69178)
[3] = target: SLT-2 (VT-2) (Escherichia phage 933W, UniProt P09386)
[4] = solid phase assays, protocol A or B

Sequence of SLT-1 (Verotoxin I) (P69178 whole entry, looked up): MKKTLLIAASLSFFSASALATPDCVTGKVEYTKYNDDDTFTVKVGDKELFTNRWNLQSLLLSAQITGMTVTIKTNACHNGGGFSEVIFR
Sequence of SLT-1 (VT-1) (P69178 whole entry, looked up): as above
Sequence of SLT-2 (VT-2) (P09386 whole entry, looked up): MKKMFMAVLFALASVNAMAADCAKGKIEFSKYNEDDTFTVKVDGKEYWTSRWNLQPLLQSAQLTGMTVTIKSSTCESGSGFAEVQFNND

Compound	activity relative to the Pk trisaccharide alone ([1]; ELISA, VT-I)	IC50 [1]	activity relative to the bridged trisaccharide dimer ([1]; similar ELISA, FIG. 5)	relative inhibition of SLT-1 binding to P^k ligand (in words) [1, 4]	IC50 [2]	IC50 [3]	fold less active when compared to 22 ([1]; solid phase assays, protocol A or B, SLT-1)
CO[C@@H]1O[C@H](CO)[C@@H](O[C@@H]2O[C@H](CO)[C@H](O[C@H]3O[C@H](CO)[C@H](O)[C@H](O)[C@H]3O)[C@H](O)[C@H]2OCCOC(=O)NCC(CNC(=O)OCCO[C@H]2[C@H](O[C@H]3[C@H](O)[C@@H](O)[C@H](OC)O[C@@H]3CO)O[C@H](CO)[C@H](O[C@H]3O[C@H](CO)[C@H](O)[C@H](O)[C@H]3O)[C@@H]2O)OC(=O)NCCCCCCCCNc2c(NCCNC(=O)CSCCCOC[C@H]3O[C@@H](OCCCSCC(=O)NCCNc4c(NCCCCCCCCNC(=O)OC(CNC(=O)OCCO[C@H]5[C@H](O[C@H]6[C@H](O)[C@@H](O)[C@H](OC)O[C@@H]6CO)O[C@H](CO)[C@H](O[C@H]6O[C@H](CO)[C@H](O)[C@H](O)[C@H]6O)[C@@H]5O)CNC(=O)OCCO[C@H]5[C@H](O[C@H]6[C@H](O)[C@@H](O)[C@H](OC)O[C@@H]6CO)O[C@H](CO)[C@H](O[C@H]6O[C@H](CO)[C@H](O)[C@H](O)[C@H]6O)[C@@H]5O)c(=O)c4=O)[C@H](OCCCSCC(=O)NCCNc4c(NCCCCCCCCNC(=O)OC(CNC(=O)OCCO[C@H]5[C@H](O[C@H]6[C@H](O)[C@@H](O)[C@H](OC)O[C@@H]6CO)O[C@H](CO)[C@H](O[C@H]6O[C@H](CO)[C@H](O)[C@H](O)[C@H]6O)[C@@H]5O)CNC(=O)OCCO[C@H]5[C@H](O[C@H]6[C@H](O)[C@@H](O)[C@H](OC)O[C@@H]6CO)O[C@H](CO)[C@H](O[C@H]6O[C@H](CO)[C@H](O)[C@H](O)[C@H]6O)[C@@H]5O)c(=O)c4=O)[C@@H](OCCCSCC(=O)NCCNc4c(NCCCCCCCCNC(=O)OC(CNC(=O)OCCO[C@H]5[C@H](O[C@H]6[C@H](O)[C@@H](O)[C@H](OC)O[C@@H]6CO)O[C@H](CO)[C@H](O[C@H]6O[C@H](CO)[C@H](O)[C@H](O)[C@H]6O)[C@@H]5O)CNC(=O)OCCO[C@H]5[C@H](O[C@H]6[C@H](O)[C@@H](O)[C@H](OC)O[C@@H]6CO)O[C@H](CO)[C@H](O[C@H]6O[C@H](CO)[C@H](O)[C@H](O)[C@H]6O)[C@@H]5O)c(=O)c4=O)[C@@H]3OCCCSCC(=O)NCCNc3c(NCCCCCCCCNC(=O)OC(CNC(=O)OCCO[C@H]4[C@H](O[C@H]5[C@H](O)[C@@H](O)[C@H](OC)O[C@@H]5CO)O[C@H](CO)[C@H](O[C@H]5O[C@H](CO)[C@H](O)[C@H](O)[C@H]5O)[C@@H]4O)CNC(=O)OCCO[C@H]4[C@H](O[C@H]5[C@H](O)[C@@H](O)[C@H](OC)O[C@@H]5CO)O[C@H](CO)[C@H](O[C@H]5O[C@H](CO)[C@H](O)[C@H](O)[C@H]5O)[C@@H]4O)c(=O)c3=O)c(=O)c2=O)[C@H](O)[C@H]1O [Compound 22]	about a million times more active than the trisaccharide alone	0.23 nM	about 10,000 times	by far the most active inhibitor of SLT-1 binding to P^k ligand	0.4 nM	6 nM	
CO[C@@H]1O[C@H](CO)[C@@H](O[C@@H]2O[C@H](CO)[C@H](O[C@H]3O[C@H](CO)[C@H](O)[C@H](O)[C@H]3O)[C@H](O)[C@H]2OCCOC(=O)NCC(CNC(=O)OCCO[C@H]2[C@H](O[C@H]3[C@H](O)[C@@H](O)[C@H](OC)O[C@@H]3CO)O[C@H](CO)[C@H](O[C@H]3O[C@H](CO)[C@H](O)[C@H](O)[C@H]3O)[C@@H]2O)OC(=O)NCCCCCCCCNc2c(NCCNC(=O)CSCCCOC[C@H]3O[C@@H](OC)[C@H](OCCCSCC(=O)NCCNc4c(NCCCCCCCCNC(=O)OC(CNC(=O)OCCO[C@H]5[C@H](O[C@H]6[C@H](O)[C@@H](O)[C@H](OC)O[C@@H]6CO)O[C@H](CO)[C@H](O[C@H]6O[C@H](CO)[C@H](O)[C@H](O)[C@H]6O)[C@@H]5O)CNC(=O)OCCO[C@H]5[C@H](O[C@H]6[C@H](O)[C@@H](O)[C@H](OC)O[C@@H]6CO)O[C@H](CO)[C@H](O[C@H]6O[C@H](CO)[C@H](O)[C@H](O)[C@H]6O)[C@@H]5O)c(=O)c4=O)[C@@H](OCCCSCC(=O)NCCNc4c(NCCCCCCCCNC(=O)OC(CNC(=O)OCCO[C@H]5[C@H](O[C@H]6[C@H](O)[C@@H](O)[C@H](OC)O[C@@H]6CO)O[C@H](CO)[C@H](O[C@H]6O[C@H](CO)[C@H](O)[C@H](O)[C@H]6O)[C@@H]5O)CNC(=O)OCCO[C@H]5[C@H](O[C@H]6[C@H](O)[C@@H](O)[C@H](OC)O[C@@H]6CO)O[C@H](CO)[C@H](O[C@H]6O[C@H](CO)[C@H](O)[C@H](O)[C@H]6O)[C@@H]5O)c(=O)c4=O)[C@@H]3OCCCSCC(=O)NCCNc3c(NCCCCCCCCNC(=O)OC(CNC(=O)OCCO[C@H]4[C@H](O[C@H]5[C@H](O)[C@@H](O)[C@H](OC)O[C@@H]5CO)O[C@H](CO)[C@H](O[C@H]5O[C@H](CO)[C@H](O)[C@H](O)[C@H]5O)[C@@H]4O)CNC(=O)OCCO[C@H]4[C@H](O[C@H]5[C@H](O)[C@@H](O)[C@H](OC)O[C@@H]5CO)O[C@H](CO)[C@H](O[C@H]5O[C@H](CO)[C@H](O)[C@H](O)[C@H]5O)[C@@H]4O)c(=O)c3=O)c(=O)c2=O)[C@H](O)[C@H]1O [Compound 23]		1.6 nM			3.3 nM	9 nM	
CO[C@@H]1O[C@H](CO)[C@@H](O[C@@H]2O[C@H](CO)[C@H](O[C@H]3O[C@H](CO)[C@H](O)[C@H](O)[C@H]3O)[C@H](O)[C@H]2OCCOC(=O)NCCCCCCCCNc2c(NCCNC(=O)CSCCCO[C@@H]3[C@@H](OCCCSCC(=O)NCCNc4c(NCCCCCCCCNC(=O)OCCO[C@H]5[C@H](O[C@H]6[C@H](O)[C@@H](O)[C@H](OC)O[C@@H]6CO)O[C@H](CO)[C@H](O[C@H]6O[C@H](CO)[C@H](O)[C@H](O)[C@H]6O)[C@@H]5O)c(=O)c4=O)[C@H](OC)O[C@H](CO)[C@H]3OCCCSCC(=O)NCCNc3c(NCCCCCCCCNC(=O)OCCO[C@H]4[C@H](O[C@H]5[C@H](O)[C@@H](O)[C@H](OC)O[C@@H]5CO)O[C@H](CO)[C@H](O[C@H]5O[C@H](CO)[C@H](O)[C@H](O)[C@H]5O)[C@@H]4O)c(=O)c3=O)c(=O)c2=O)[C@H](O)[C@H]1O [Compound 27]		3500 nM		the activity drops by several orders of magnitude	13600 nM		
CO[C@@H]1O[C@H](CO)[C@@H](O[C@@H]2O[C@H](CO)[C@H](O[C@H]3O[C@H](CO)[C@H](O)[C@H](O)[C@H]3O)[C@H](O)[C@H]2OCCOC(=O)NCCCCCCCCNc2c(NCCNC(=O)CSCCCOC[C@H]3O[C@@H](OC)[C@H](OCCCSCC(=O)NCCNc4c(NCCCCCCCCNC(=O)OCCO[C@H]5[C@H](O[C@H]6[C@H](O)[C@@H](O)[C@H](OC)O[C@@H]6CO)O[C@H](CO)[C@H](O[C@H]6O[C@H](CO)[C@H](O)[C@H](O)[C@H]6O)[C@@H]5O)c(=O)c4=O)[C@@H](OCCCSCC(=O)NCCNc4c(NCCCCCCCCNC(=O)OCCO[C@H]5[C@H](O[C@H]6[C@H](O)[C@@H](O)[C@H](OC)O[C@@H]6CO)O[C@H](CO)[C@H](O[C@H]6O[C@H](CO)[C@H](O)[C@H](O)[C@H]6O)[C@@H]5O)c(=O)c4=O)[C@@H]3OCCCSCC(=O)NCCNc3c(NCCCCCCCCNC(=O)OCCO[C@H]4[C@H](O[C@H]5[C@H](O)[C@@H](O)[C@H](OC)O[C@@H]5CO)O[C@H](CO)[C@H](O[C@H]5O[C@H](CO)[C@H](O)[C@H](O)[C@H]5O)[C@@H]4O)c(=O)c3=O)c(=O)c2=O)[C@H](O)[C@H]1O [Compound 26]		350 nM		the activity drops by several orders of magnitude	3400 nM		
CO[C@@H]1O[C@H](CO)[C@@H](O[C@@H]2O[C@H](CO)[C@H](O[C@H]3O[C@H](CO)[C@H](O)[C@H](O)[C@H]3O)[C@H](O)[C@H]2OCCOC(=O)NCCCCCCCCNc2c(NCCNC(=O)CSCCCOC[C@H]3O[C@@H](OCCCSCC(=O)NCCNc4c(NCCCCCCCCNC(=O)OCCO[C@H]5[C@H](O[C@H]6[C@H](O)[C@@H](O)[C@H](OC)O[C@@H]6CO)O[C@H](CO)[C@H](O[C@H]6O[C@H](CO)[C@H](O)[C@H](O)[C@H]6O)[C@@H]5O)c(=O)c4=O)[C@H](OCCCSCC(=O)NCCNc4c(NCCCCCCCCNC(=O)OCCO[C@H]5[C@H](O[C@H]6[C@H](O)[C@@H](O)[C@H](OC)O[C@@H]6CO)O[C@H](CO)[C@H](O[C@H]6O[C@H](CO)[C@H](O)[C@H](O)[C@H]6O)[C@@H]5O)c(=O)c4=O)[C@@H](OCCCSCC(=O)NCCNc4c(NCCCCCCCCNC(=O)OCCO[C@H]5[C@H](O[C@H]6[C@H](O)[C@@H](O)[C@H](OC)O[C@@H]6CO)O[C@H](CO)[C@H](O[C@H]6O[C@H](CO)[C@H](O)[C@H](O)[C@H]6O)[C@@H]5O)c(=O)c4=O)[C@@H]3OCCCSCC(=O)NCCNc3c(NCCCCCCCCNC(=O)OCCO[C@H]4[C@H](O[C@H]5[C@H](O)[C@@H](O)[C@H](OC)O[C@@H]5CO)O[C@H](CO)[C@H](O[C@H]5O[C@H](CO)[C@H](O)[C@H](O)[C@H]5O)[C@@H]4O)c(=O)c3=O)c(=O)c2=O)[C@H](O)[C@H]1O [Compound 25]		24 nM			1230 nM		500-1000 fold
